Measured values reported in US7220720B2, “Melanin-concentrating hormone analogs” (Merk & Co., Inc., priority 2000, dated 2007).
Read-outs that look alike come from different tables or passages of the source. Where a SMILES comes first, the peptide text is derived from it. Bridges are numbered along the chain shown (N, C = ends).

Key:
human MCH receptor [1] = molecular target: T1, human MCH receptor (Homo sapiens, UniProt Q99705); experiment: Aequorin bioluminescence functional assay in 293-AEQ17 cells transfected with human MCH receptor; assay type: cell-based; set-up: expressed in transfected cells; host or cells: 293-AEQ17 (aequorin-expressing HEK-293 reporter line), transient lipofectamine transfection, pcDNA-3 vector; Activity Activation %: concentration or dose not given beside the values; conditions: for % Activation at 10 μM: Table 1, aequorin functional assay; for Activity Activation %: Table 5, position 10 modification
T1 sequence (Q99705 whole entry): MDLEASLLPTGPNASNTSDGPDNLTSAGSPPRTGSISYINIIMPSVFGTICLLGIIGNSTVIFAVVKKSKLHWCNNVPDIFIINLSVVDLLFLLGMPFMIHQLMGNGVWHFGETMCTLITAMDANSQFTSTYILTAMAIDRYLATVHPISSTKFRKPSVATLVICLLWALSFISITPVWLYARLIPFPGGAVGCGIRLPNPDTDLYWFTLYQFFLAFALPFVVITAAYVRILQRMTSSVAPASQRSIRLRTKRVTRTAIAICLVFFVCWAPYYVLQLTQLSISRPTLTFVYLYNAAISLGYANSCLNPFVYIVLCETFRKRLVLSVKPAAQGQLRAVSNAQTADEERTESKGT
Protocol: The aequorin bioluminescence assay is a reliable test for measuring the activity of G protein-coupled receptors that couple through the Gα protein subunit family consisting of Gq and Gll and leads to the activation of phospholipase C, mobilization of intracellular calcium and activation of protein kinase C.
Following approximately 40 hours of expression the apo-aequorin in the cells was charged for 4 hours with coelenterazine (10 μM) under reducing conditions (300 μM reduced glutathione) in ECB buffer (140 mM NaCl, 20 mM KCl, 20 mM HEPES-NaOH [pH=7.4], 5 mM glucose, 1 mM MgCl2, 1 mM CaCl2, 0.1 mg/ml bovine serum albumin).
The cells were harvested, washed once in ECB medium and resuspended to 500,000 cells/ml. 100 μl of cell suspension (corresponding to 5×10^4 cells) was then injected into the test plate containing MCH or MCH analogs, and the integrated light emission was recorded over 30 seconds, in 0.5 second units. 20 μL of lysis buffer (0.1% final Triton X-100 concentration) was then injected and the integrated light emission recorded over 10 seconds, in 0.5 second units. The “fractional response” values for each well were calculated by taking the ratio of the integrated response to the initial challenge to the total integrated luminescence including the Triton X-100 lysis response.

human MCH receptor [2] = molecular target: T1, human MCH receptor; experiment: Radiolabeled MCH-R binding assay: inhibition of [125I]-human MCH (Phe13, Tyr19 substituted) binding to cell membranes (filter or SPA format); set-up: expressed in transfected cells
Protocol: Cell membranes were prepared on ice. Each T-75 flask was rinsed twice with 10 ml of Enzyme-free Cell Dissociation Buffer (Specialty Media, Lavallette, N.J.), and the cell monolayer was detached in an additional 10 ml of Enzyme-free Cell Dissociation Buffer by incubation at room temperature for 10 minutes. Dissociated cells were centrifuged (500×g for 10 minutes at 4° C.), resuspended in 5 ml homogenization buffer (10 mM Tris-HCl, pH 7.4, 0.01 mM Pefabloc, 10 μM phosphoramidon, 40 μg/ml bacitracin) and then homogenized using a glass homogenizer (10–15 strokes). The homogenate was centrifuged for 10 minutes (1,000×g at 4° C.). The resulting supernatant was then centrifuged at 38,700×g for 15 minutes at 4° C. Pelleted membranes were resuspended (passed through 25 gauge needle 5 times), snap-frozen on liquid nitrogen, and stored at −80° C. until use.
Binding was performed in a 96-well filter assay or Scintillation Proximity Assay (SPA)-based format using cell membranes from a stable CHO or HEK-293 cell line expressing the MCH receptor. For the filter assay, reactions were performed at 20° C. for 1 hour in a total volume of 0.2 ml containing: 0.05 ml of membrane suspension (˜3 μg protein), 0.02 ml of [^125I]-human MCH (Phe^13, Tyr^19 substituted; 30 pM), 0.01 ml of competitor and 0.12 ml of binding buffer (50 mM Tris-HCl, pH 7.4, 10 mM MgCl2, 2 mM EDTA, 200 μg/ml bacitracin, 1 μM phosphoramidon).
Bound radioligand was separated by rapid vacuum filtration (Packard Filtermate 96-well cell harvester) through GF/C filters pretreated for 1 hour with 1% polyethylenimine. After application of the membrane suspension to the filter, the filters were washed 3 times with 3 ml each of ice-cold 50 mM Tris-HCl, pH 7.4, 10 mM MgCl2, 2 mM EDTA, 0.04% Tween 20 and the bound radioactivity on the filters was quantitated by scintillation counting (TopCount device).
For the SPA-based assay, WGA-PVT beads (NEN Life Sciences Products) were resuspended in Dulbecco's PBS with calcium and magnesium (500 mg beads in 4 ml PBS). For each 96-well assay plate, 0.18 ml of beads was pre-coated with MCH receptor by mixing with 0.2 ml MCH receptor CHO cell membranes (˜0.2–4 mg protein) and 1.5 ml SPA assay buffer (50 mM Tris-HCl, pH 7.4, 10 mM MgCl2, 2 mM EDTA, 0.1% BSA, 12% glycerol). The suspension was mixed gently for 20 minutes, 12.3 ml of assay buffer and protease inhibitors were added (final concentration given): 2 μg/ml leupeptin, 10 μM phosphoramidon, 40 μg/ml bacitracin, 5 μg/ml aprotinin, 0.1 mM Pefabloc.
Coated beads were kept on ice until use. For each well, 0.145 ml of beads were added to Optiplate assay plates (Packard 6005190), followed by 0.002–0.004 ml of competitor and 0.05 ml of [^125I]-human MCH (Phe^13, Tyr^19 substituted; 30 pM). Binding reactions were allowed to proceed at room temperature for 3 hours. Quantitation was performed by scintillation counting (TopCount device).

[3] = Table 1, SPA based assay, read-out: Binding Assay IC50
[4] = Table 5, position 10 modification, read-out: Activity IC50

Compound | % Activation at 10 μM (human MCH receptor [1]) [%] | IC50 (human MCH receptor [2]; [3]) [nM] | Activity Activation % (human MCH receptor [1]) [%] | IC50 (human MCH receptor [2]; [4]) [nM]
CSCC[C@@H]1NC(=O)[C@@H](NC(=O)[C@H](CCCNC(=N)N)NC(C)=O)CSSC[C@@H](C(=O)N[C@@H](Cc2ccc(O)cc2)C(N)=O)NC(=O)[C@@H]2CCCN2C(=O)[C@H](CCCNC(=N)N)NC(=O)[C@H](Cc2ccccc2)NC(=O)[C@H](C(C)C)NC(=O)[C@H](CCCNC(=N)N)NC(=O)CNC(=O)[C@H](CC(C)C)NC1=O [compound 8] (Ac-RCMLGRVFRPCY-NH2; disulfide 2-11) | 123 | 0.16 |  | 
CSCC[C@@H]1NC(=O)[C@@H](NC(C)=O)CSSC[C@@H](C(N)=O)NC(=O)[C@@H]2CCCN2C(=O)[C@H](CCCNC(=N)N)NC(=O)[C@H](Cc2ccc(O)cc2)NC(=O)[C@H](C(C)C)NC(=O)[C@H](CCCNC(=N)N)NC(=O)CNC(=O)[C@H](CC(C)C)NC1=O [compound 9] | 74 | 1.6 |  | 
CSCC[C@@H]1NC(=O)[C@@H](NC(=O)[C@H](CCCNC(=N)N)NC(=O)[C@H](CC(C)C)NC(=O)[C@H](CCSC)NC(=O)[C@H](CC(=O)O)NC(=O)[C@H](Cc2ccccc2)NC(=O)[C@@H](N)CC(=O)O)CSSC[C@@H](C(N)=O)NC(=O)[C@@H]2CCCN2C(=O)[C@H](CCCNC(=N)N)NC(=O)[C@H](Cc2ccc(O)cc2)NC(=O)[C@H](C(C)C)NC(=O)[C@H](CCCNC(=N)N)NC(=O)CNC(=O)[C@H](CC(C)C)NC1=O [compound 10] (H-DFDMLRCMLGRVYRPC-NH2; disulfide 7-16) | 99 | 0.3 |  | 
CSCC[C@@H]1NC(=O)[C@@H](NC(=O)[C@H](CCCNC(=N)N)NC(C)=O)CSSC[C@@H](C(N)=O)NC(=O)[C@@H]2CCCN2C(=O)[C@H](CCCNC(=N)N)NC(=O)[C@H](Cc2ccc(O)cc2)NC(=O)[C@H](C(C)C)NC(=O)[C@H](CCCNC(=N)N)NC(=O)[C@@H]2CCCN2C(=O)[C@H](CC(C)C)NC1=O [compound 50] |  |  | 4 | 700
CSCC[C@@H]1NC(=O)[C@@H](NC(=O)[C@H](CCCNC(=N)N)NC(C)=O)CSSC[C@@H](C(N)=O)NC(=O)[C@@H]2CCCN2C(=O)[C@H](CCCNC(=N)N)NC(=O)[C@H](Cc2ccc(O)cc2)NC(=O)[C@H](C(C)C)NC(=O)[C@H](CCCNC(=N)N)NC(=O)[C@H](CCCCN)NC(=O)[C@H](CC(C)C)NC1=O [compound 53] |  |  | 25 | 110
CSCC[C@@H]1NC(=O)[C@@H](NC(=O)[C@H](CCCNC(=N)N)NC(C)=O)CSSC[C@@H](C(N)=O)NC(=O)[C@@H]2CCCN2C(=O)[C@H](CCCNC(=N)N)NC(=O)[C@H](Cc2ccc(O)cc2)NC(=O)[C@H](C(C)C)NC(=O)[C@H](CCCNC(=N)N)NC(=O)[C@H](CCC(=O)O)NC(=O)[C@H](CC(C)C)NC1=O [compound 54] |  |  | 12 | 190
